Data as given in US6977294B2, “Process for isolation of eupalitin from Boerhavia diffusa” (Council of Scientific and Industrial Research, priority 2002, dated 2005).
“Also recorded” adds a separate entry of the source. Read-outs that look alike come from different tables or passages of the source. Blank lines part the entries; values can stand above or below the compound they belong to.

Columns and labels:
Ca^2+ channel = settings: frog heart single cells; cited from earlier work
solubility in methanol = format: physicochemical
Excerpt: The process of the present invention overcomes disadvantages of the prior art since: • 1. Aerial parts such as leaves of Boerhavia diffusa collected from specific locations identified herein are used (containing the maximum amount of the compound and as established by analyzing the samples of the plant collected during three years). • 2. The process prescribes hot continuous extraction (Soxhlet extraction) ensuring complete extraction of compound of formula 1. […] The compound is purified by direct crystallization from the residue obtained after triturition described in 3, making it the simplest, quickest, highly economically viable, scale up compatible for commercial utilization and novel method for the isolation of compound of formula 1 with an yield upto 0.4% which is more than 300 times the yield reported by Li et al.

[1] = test system: bone resorption induced by parathyroid hormone (PTH); settings: cited from earlier work; for activity compared with ipriflavone: under identical conditions, anti-osteoporosis activity
[2] = rats; cited from earlier work
[3] = cats; cited from earlier work
[4] = monkeys; cited from earlier work

Compound: COc1cc([C@H]2OC[C@H]3[C@@H]2CO[C@@H]3c2cc(OC)c(O[C@@H]3O[C@H](CO)[C@@H](O)[C@H](O)[C@H]3O)c(OC)c2)cc(OC)c1O[C@@H]1O[C@H](CO)[C@@H](O)[C@H](O)[C@H]1O [Liriodendrin, liriodendrin]
Ca2+ channel block (Ca^2+ channel): blocked

solubility in methanol (solubility in methanol): not highly soluble
Compound: COc1cc2oc(-c3ccc(O)cc3)c(OC3OC(CO)C(O)C(O)C3O)c(=O)c2c(O)c1OC [eupalitin 3-O-β-D-galactopyranoside, 5,4′-dihydroxy 6,7-dimethoxy-flavonol-3-O-β-D-galactoside]
inhibition of bone resorption induced by parathyroid hormone (PTH) ([1]; tissue culture): significant (p<0.001) inhibition
activity compared with ipriflavone [1]: greater anti-osteoporosis activity than ipriflavone; also recorded: more than that exhibited by lpriflavone
activity compared with ipriflavone ([1]; listed as 3-O-β-D-galactopyranoside): greater anti-osteoporosis activity than ipriflavone

Compound: O=c1[nH]cnc2c1ncn2C1O[C@@H](CO)[C@H](O)[C@H]1O (stereo partly drawn) [hypoxanthine 9-L-arabinoside]
cardiovascular effects [2]: depressor and negative chronotropic effects
cardiovascular effects [3]: depressor and negative chronotropic effects

Compound: Punarnavoside
antifibrinolytic activity [4]: had antifibrinolytic activity
